# Measurements published in patent publication US20240358692A1, “TREATMENT OF SCLERODERMA” (Aisa Pharma, Inc., priority 2023, published 2024).
# Columns and labels:
# participants with SSc-RP [1] = test: SHAQ - Visual Analog Scale - Breathing Problems; assay type: in vivo, human; set-up: Visual Analog Scale-Breathing Problems, In Clinic Visit (Day 12), Mean / Visual Analog Scale-Breathing Problems, In Clinic Visit (Day 12), Median / SHAQ Visual Analogue Scale - Breathing Problems, In-Clinic Visit (Day 12), Mean / SHAQ Visual Analogue Scale - Breathing Problems, In-Clinic Visit (Day 12), Median / SHAQ Visual Analogue Scale - Breathing Problems, Change from Baseline, Median: scale not given here
# Text: (§1) The standard, validated, patient reported outcome measures tool for SSc patients, the Scleroderma Health Assessment Questionnaire (SHAQ), will be used to assess the participant qualify of life. Details are attached in the Appendix. The participant quality of life will be scored, and a disability index calculated for each questionnaire completed by the patient at Screening and each in-clinic visit. The absolute change in participant quality of life from baseline to the end of each dosing period will be calculated similar to frequency data as before.
# (§2) The standard, validated, patient reported outcome measures tool for SSc patients, the SHAQ, was collected at the time points specified in the study schedules (FIG. 2 and FIGS. 4A and 4B) to assess the participant's quality of life. The SHAQ included a Raynaud's VAS that will also be reported separately.
# participants with SSc-RP [2] = test: SHAQ - Visual Analog Scale - Pain; assay type: in vivo, human
# Text: as §1, §2
# Pain on the SHAQ outcome measure on the first line in table F is a composite of all pain experienced in patients with SSc, comprising joint pain, back pain, headache, odynophagia, skin ulcer related discomfort, Raynaud's, and neuropathic pain. Aisa Pharma believes, based on the biologic attributes and actions of cilnidipine that differ from most dihydropyridine calcium channel antagonists that cilnidipine might have direct analgesic effects in certain pain conditions and in fact has been designated to receive evaluation through the […] Preclinical Pain Screening Platform Program to investigate the drug in multiple in vitro and in vivo preclinical models of pain that are validated and predictive of effects in man.
# [3] = Modified ITT Population-Part A, Day 12, dose cilnidipine 10 mg, tadalafil 5 mg, alone or combined as labelled
# [4] = Modified ITT Population-Part A, dose cilnidipine 10 mg, tadalafil 5 mg, alone or combined as labelled
# [5] = Tadalafil 5 mg, SSc patients, PP, Part A
smiles,measurement,setting,value
CN1CC(=O)N2[C@H](c3ccc4c(c3)OCO4)c3[nH]c4ccccc4c3C[C@@H]2C1=O [Tadalafil],"Visual Analog Scale-Breathing Problems, Change from Baseline, Mean",participants with SSc-RP [1]; [3],0.500
same,"Visual Analog Scale-Breathing Problems, In Clinic Visit (Day 12), Mean",participants with SSc-RP [1]; [4],4.300
same,"Visual Analog Scale-Breathing Problems, In Clinic Visit (Day 12), Median",participants with SSc-RP [1]; [4],4.000
same,"SHAQ VAS Breathing Problems, Change from Baseline, Max",participants with SSc-RP [1]; [5],2.80
same,"SHAQ VAS Breathing Problems, Change from Baseline, Mean",participants with SSc-RP [1]; [5],0.500
same,"SHAQ VAS Breathing Problems, Change from Baseline, Median",participants with SSc-RP [1]; [5],1.050
same,"SHAQ VAS Breathing Problems, Change from Baseline, Min",participants with SSc-RP [1]; [5],"−2.90,"
same,"SHAQ VAS Breathing Problems, Change from Baseline, Q1",participants with SSc-RP [1]; [5],"−1.450,"
same,"SHAQ VAS Breathing Problems, Change from Baseline, Q3",participants with SSc-RP [1]; [5],2.450
same,"SHAQ VAS Breathing Problems, Day 12, Max",participants with SSc-RP [1]; [5],9.20
same,"SHAQ VAS Breathing Problems, Day 12, Mean",participants with SSc-RP [1]; [5],4.300
same,"SHAQ VAS Breathing Problems, Day 12, Median",participants with SSc-RP [1]; [5],4.000
same,"SHAQ VAS Breathing Problems, Day 12, Min",participants with SSc-RP [1]; [5],"0.00,"
same,"SHAQ VAS Breathing Problems, Day 12, Q1",participants with SSc-RP [1]; [5],"0.100,"
same,"SHAQ VAS Breathing Problems, Day 12, Q3",participants with SSc-RP [1]; [5],8.500
same,"SHAQ VAS Breathing Problems, Percent Change from Baseline, Max",participants with SSc-RP [1]; [5],56.0
same,"SHAQ VAS Breathing Problems, Percent Change from Baseline, Mean",participants with SSc-RP [1]; [5],−2.66
same,"SHAQ VAS Breathing Problems, Percent Change from Baseline, Median",participants with SSc-RP [1]; [5],29.58
same,"SHAQ VAS Breathing Problems, Percent Change from Baseline, Min",participants with SSc-RP [1]; [5],"−93.5,"
same,"SHAQ VAS Breathing Problems, Percent Change from Baseline, Q1",participants with SSc-RP [1]; [5],"−93.55,"
same,"SHAQ VAS Breathing Problems, Percent Change from Baseline, Q3",participants with SSc-RP [1]; [5],56.00
same,"Visual Analog Scale-Pain, Change from Baseline, Mean",participants with SSc-RP [2]; [3],1.000
same,"Visual Analog Scale-Pain, Change from Baseline, Median",participants with SSc-RP [2]; [3],0.800
same,"Visual Analog Scale-Pain, In Clinic Visit (Day 12), Mean",participants with SSc-RP [2]; [4],5.300
same,"SHAQ VAS Pain, Change from Baseline, Max",participants with SSc-RP [2]; [5],1.50
same,"SHAQ VAS Pain, Change from Baseline, Mean",participants with SSc-RP [2]; [5],1.000
same,"SHAQ VAS Pain, Change from Baseline, Median",participants with SSc-RP [2]; [5],0.800
same,"SHAQ VAS Pain, Change from Baseline, Min",participants with SSc-RP [2]; [5],"0.70,"
same,"SHAQ VAS Pain, Change from Baseline, Q1",participants with SSc-RP [2]; [5],"0.700,"
same,"SHAQ VAS Pain, Change from Baseline, Q3",participants with SSc-RP [2]; [5],1.500
same,"SHAQ VAS Pain, Day 12, Max",participants with SSc-RP [2]; [5],9.20
same,"SHAQ VAS Pain, Day 12, Mean",participants with SSc-RP [2]; [5],5.300
same,"SHAQ VAS Pain, Day 12, Median",participants with SSc-RP [2]; [5],5.850
same,"SHAQ VAS Pain, Day 12, Min",participants with SSc-RP [2]; [5],"0.30,"
same,"SHAQ VAS Pain, Day 12, Q1",participants with SSc-RP [2]; [5],"1.900,"
same,"SHAQ VAS Pain, Day 12, Q3",participants with SSc-RP [2]; [5],8.700
same,"SHAQ VAS Pain, Percent Change from Baseline, Max",participants with SSc-RP [2]; [5],75.0
same,"SHAQ VAS Pain, Percent Change from Baseline, Mean",participants with SSc-RP [2]; [5],31.35
same,"SHAQ VAS Pain, Percent Change from Baseline, Median",participants with SSc-RP [2]; [5],10.81
same,"SHAQ VAS Pain, Percent Change from Baseline, Min",participants with SSc-RP [2]; [5],"8.2,"
same,"SHAQ VAS Pain, Percent Change from Baseline, Q1",participants with SSc-RP [2]; [5],"8.24,"
same,"SHAQ VAS Pain, Percent Change from Baseline, Q3",participants with SSc-RP [2]; [5],75.00
